Results on one molecule are retold here after patent publication US6703370B1, “Use of ribose to treat fibromyalgia” (Bioenergy, Inc., priority 1999, dated 2004).

Common to all, as to type: in vivo, human
One test relates to fibromyalgia patients. Briefly: Applicants' general finding on steady ingestion of ribose. Conditions: steady ingestion two to four times per day over the course of a week. From the text: Continued ingestion leads to greater improvement, in turn allowing the patient to endure the much needed regular exercise to further relieve the painful symptoms.
The test system of test [1] is patients with fibromyalgia (FM). Briefly: Planned double-blind crossover study of oral ribose in fibromyalgia. The settings on record: 16 patients planned, 20 gm per day (10 gm bid), 4 weeks, crossover against dextrose placebo. From the text:
Following the informal studies in five subjects, a protocol was written to determine whether oral ribose administration in patients with fibromyalgia (FM) can reduce symptoms of fatigue and pain and improve the subjects' quality of life. The study endpoints will be: (1) the patient's visual analog (PVA) scale for pain, (2) the patient's analog scale for fatigue, (3) the physician's global assessment (GAphs), (4) the patient's global assessment (GAPT), (5) the Western Ontario MacMaster Questionaire (WOMAC) index, (6) SF-36 quality of life form, (7) the patient's's daily activity/events log and (8) the number of days to study discontinuation, if the patient chooses to do so, based upon his/her improved condition. The study will include 16 patients with a confirmed diagnosis of FM using a double-blind crossover design. All patients who meet entrance or screening criteria will be randomly assigned to either treatment #1 (oral dextrose as a placebo) or treatment #2 (oral ribose) at a dose of 20 gm per day (10 gm bid), as a first treatment modality. Both physician and patient will be blinded to the treatment modality. Informed consent will be obtained prior to enrolment. […] All endpoint parameters will be assessed at baseline prior to treatment, after 4 weeks of treatment one, at the end of the workout period, and again following 4 weeks of treatment 2 (“crossover” treatment modality). […]

The next test has as its system fibromyalgia subjects. Briefly: Pilot study on the effect of ribose in alleviating the symptoms of fibromyalgia (SF-36 health status profile and subject reports). The text has this: Four women subjects ranging in age from 45 to 55 were given ribose and instructed to take at least 20 grams per day, preferably divided in four doses. The recommended mode of administration was one heaping teaspoon, about five to seven grams, mixed in six to eight ounces of water, taken preferably with meals and before planned activity. Subjects were encouraged to vary the dosage according to their perceived needs. Each subject was given a health status profile (SF-36) to complete. The profile was to be filled out both before and after four weeks of ribose administration. Two of the subjects complied with filling out the profile.
Health Status Profile (SF-36):
1) General health compared to one year ago: 1=much better, 2=somewhat better, 3=about the same, 4=somewhat worse, 5=much worse
2) Energy, 2 questions, from peppy all of the time to none of the time.
3) Activities, 12 examples from vigorous to mild, scored as: limited a lot, limited a little, not limited
4) Pain: 1=none, 2=very mild, 3=mild, 4=moderate, 5=severe, 6 =very severe The results of each subject's before and after ratings are summarized in Table I.

In another test the test system is fibromyalgia patient. Briefly: Alleviation of symptoms in a fibromyalgia patient (single case, oral ribose). The text has this:
A patient diagnosed with fibromyalgia had been experiencing extreme muscle pain and fatigue as well as irritable bowel syndrome, disturbed sleep, and cognitive dysfunction. They had been told by their physician that they were in the worst stage of the condition and could end up in a wheel chair within a year. They began taking ribose, one teaspoonful (about 5 grams), 4 times per day. […] They continued taking it for a week then decided to observe the effects of stopping the doses of ribose, so they discontinued the protocol for one week. […] They stated that “It is without a doubt the best product I have ever been on.”

Setting [2] is: after resuming, one teaspoonful 4 times per day, after 4 weeks.

With `O=C[C@H](O)[C@H](O)[C@H](O)CO` [ribose, D-ribose], the “Fatigue, achiness, pain, energy and irritable bowel syndrome” value in the test on fibromyalgia patients was “noticeable improvement in the level of fatigue, achiness, pain, and energy, and alleviation of irritable bowel syndrome”. The “Expected alleviation of achiness, fatigue and/or pain at the tender points” value in test [1] was “most of the patients will experience some alleviation of achiness, fatigue and/or pain at the tender points”. For the same molecule, the “General health compared to last year, after” value in the test on fibromyalgia subjects (Subject #1, 45-54, fibromyalgia for 15 years, after four weeks of ribose, at least 20 grams per day, before: much worse, after cell wraps r10-r11: somewhat better) was “somewhat”; with fibromyalgia subjects (Subject #2, 50-55, fibromyalgia for several years, after four weeks of ribose, before: somewhat better), “much better”. Moreover, in the test on fibromyalgia subjects (Subject #1, after four weeks of ribose, before: 8 of 12 limited a lot), the “Activities (12 total) limited a lot, after” value is reported as 1 of 12 limited a. In addition, the “Energy, after” value with fibromyalgia subjects (Subject #1, after four weeks of ribose, before: little of the time, after cell wraps r11-r12: all of the time) was “all of the”; with fibromyalgia subjects (Subject #2, after four weeks of ribose, before: none of the time, after cell wraps r16-r17: some of the time), “some of the”. In addition, the “Pain, after” value in the test with fibromyalgia subjects (Subject #1, after four weeks of ribose, before: very severe) is “moderate”; in the test with fibromyalgia subjects (Subject #2, after four weeks of ribose, before: severe), “moderate”. The “Activities (12 total) limited, after” value in the test on fibromyalgia subjects (Subject #2, after four weeks of ribose, before: 2 of 12 limited a lot) is reported as 0 of 12 limited. Moreover, the Energy result with fibromyalgia subjects (Subject #3) is listed as “more energetic”. Further, the “Energy after cessation of administration” value in the test on fibromyalgia subjects (Subject #3) is listed as “next-day loss of energy”. For the same molecule, in the test on fibromyalgia subjects (Subject #3), the “Severe pain at the tender points” value was “did not feel a decrease in severe pain at the tender points”. The “Fatigue level and achiness” value with fibromyalgia subjects (Subject #3, compliant with protocol, no profile) is “improvement in their fatigue level and less achiness”. In the test on fibromyalgia subjects (Subject #4, did not follow the protocol), the “Energy when ribose is taken on feeling exhausted” value is reported as “feel more energetic”. The “Energy and aching after suspending ribose administration” value with fibromyalgia subjects (Subjects #1 and #2, on suspending ribose) is “drop in energy and increase in aching within a day”. The “Overall relief from symptoms of fibromyalgia” value in the test with fibromyalgia subjects (all subjects of the pilot study) is given as “all reported some alleviation”. For the same molecule, in the test with fibromyalgia patient (setting [2]), the “Irritable painful bowel syndrome” value was “improved their irritable painful bowel syndrome”. The “Pain, fatigue and morning stiffness” value in the test on fibromyalgia patient (setting [2]) was “alleviated their pain, fatigue and morning stiffness”. For the same molecule, the “Energy and flare ups of muscle soreness” value with fibromyalgia patient (patient, about 5 grams 4 times per day, first week) was “more energy and fewer flare ups of muscle soreness”. Besides, the “Symptoms on starting ribose” value in the test with fibromyalgia patient (patient, about 5 grams 4 times per day, oral) is on record as “immediate improvement in their symptoms”. In the test with fibromyalgia patient (protocol discontinued for one week), the “Symptoms after discontinuing ribose” value was “symptoms returned to their previous level”.
